{"source": "patent US11912755B2", "about": "“Endostatin fragments and variants for use in treating fibrosis” (iBio, Inc., priority 2015, dated 2024)", "key": {"[1]": {"system": "MMP-3", "assay": "Genes regulated by E4: MMP-3", "assay_type": "cell-based, human", "settings": "HuF-T; RT-qPCR, protein expression levels, zymography", "experimental": "(§1) Several experiments have been performed to identify the mechanisms by which E4 exerts its anti-fibrotic activity. Real-time quantitative PCR (qPCR)-based arrays were performed on RNA extracted from primary human lung fibroblasts or mouse lung tissue stimulated with various fibrotic triggers in the absence and presence of E4 treatment in order to identify genes influenced by the endostatin peptide.\n(§2) The arrays identified several genes that have been previously implicated in fibrosis to be influenced by E4 treatment. These genes included connective tissue growth factor (CTGF), insulin-like growth factor binding protein (IGFBP)-3, matrix metalloproteases (MMP)-1 and MMP-3, urokinase plasminogen activator (uPA), plasminogen activator inhibitor (PAI)-1, and hepatocyte growth factor (HGF) with levels either decreased or increased in the presence of E4 as shown in TABLE 5."}, "[2]": {"system": "lysyl oxidase (LOX)", "assay": "LOX immunohistochemistry in lung sections of bleomycin-treated mice", "assay_type": "in vivo, mouse", "settings": "bleomycin with or without E4", "description": "FIG. 12. […] Lung sections of mice treated with BLM with or without E4 were used in immunohistochemistry to detect LOX. The sections shown are control IgG, phosphate buffered saline, bleomycin and bleomycin followed by treatment with E4."}, "[3]": {"system": "Egr-1", "assay": "Western blot of Egr-1 in primary human lung fibroblasts", "assay_type": "cell-based", "settings": "harvested after 24 hours", "experimental": "FIG. 16. […] Reduction of Egr-1 levels parallels that of collagen, SMA, and fibronectin. Lane 1: vehicle (DMSO); Lane 2: E4; Lane 3: TGFβ, Lane 4 TGFβ followed by E4 after 60 minutes. The samples were harvested after 24 hours.\nIn addition, E4 increases levels of inhibitor of differentiation (ID)-1, a transcription factor that inhibits TGF-β effects (see FIG. 15). It was determined in a Western blot analysis that E4 reduces the levels of the master switch transcription factor, Egr-1 (see FIG. 16) in primary human lung fibroblasts, treated and harvested after 24 hours. The reduction of Egr-1 levels parallels a reduction in collagen, SMA and fibronectin. Egr-1 is known to mediate the effects of several fibrotic agents (including TGF-β and bleomycin)."}, "[4]": {"system": "IGFBP-3", "assay": "Genes regulated by E4: IGFBP-3", "assay_type": "cell-based, human", "settings": "HuF-T; RT-qPCR, protein expression levels", "experimental": "as §1, §2"}, "[5]": {"system": "lysyl oxidase (LOX)", "settings": "Yamaguchi et al. 2012; cited from earlier work"}, "[6]": {"system": "human primary skin fibroblasts", "assay": "Western blot of ECM production in primary skin fibroblasts", "assay_type": "cell-based", "settings": "dermal fibroblasts of healthy controls, SSc or morphea patients", "experimental": "Primary Fibroblast Culture. Human primary lung and skin fibroblasts were cultured. The explanted lungs of normal organ donors, patients with SSc or IPF, and clinically involved skin of SSc patients, a morphea patient and healthy donors were used for primary fibroblast culture. Approximately 2-cm pieces of peripheral lung and skin were minced and fibroblasts were cultured in Dulbecco's modified Eagle's medium (DMEM; Mediatech, Herndon, Va.) supplemented with 10% FBS, penicillin, streptomycin, and anti-mycotic agent, as previously described (Feghali et al., Arthritis Rheum 1999; 42:1451-7). All the cells were used between passages 3-6.\nWestern Blot Analysis. Cellular lysates were obtained from cultured fibroblasts as previously described (Pilewski et al., Am J Pathol 2005; 166:399-407). […] Cellular lysates were analyzed by Western blot. Signals were detected following incubation with horseradish peroxidase-conjugated secondary antibody and chemiluminescence (Perkin Elmer Life Sciences, Inc., Boston, Mass.). The intensity of individual bands with expected molecular sizes was semi-quantitatively analyzed using the image/J® software available at on the Internet (/rsb.info.nih.gov/ij/index.html), and normalized to individual GAPDH intensity."}, "[7]": {"system": "bleomycin induced dermal fibrosis", "settings": "s.c.; single dose prophylactically, or multiple dose regimen starting 3 days after bleomycin; cited from earlier work"}, "[8]": {"system": "human skin explants", "settings": "single dose concurrently with TGF-β; cited from earlier work"}, "[9]": {"system": "MMP-1", "assay": "Genes regulated by E4: MMP-1", "assay_type": "cell-based, human", "settings": "HuF-T; RT-qPCR, protein expression levels, zymography, MMP-1 activity assay", "experimental": "as §1, §2"}, "[10]": {"system": "CTGF", "assay": "Genes regulated by E4: CTGF", "assay_type": "cell-based", "settings": "primary human fibroblasts treated with bleomycin or TGF-β; RT-qPCR", "experimental": "as §1, §2"}, "[11]": {"system": "HUVECs", "assay": "Tubular formation assay in MATRIGEL", "assay_type": "cell-based, human", "settings": "50 nM, 24 hours", "experimental": "Tubular formation assay. The ability of endostatin peptide to inhibit angiogenesis was examined in tubular formation assay using MATRIGEL® culture. Human umbilical vein endothelial cells (HUVECs) were maintained in endothelial cell basal medium-2 (EBM-2; Clonetics, San Diego, CA) supplemented with EBM-2 MV SINGLEQUOTS®. HUVECs (5×10^4) were cultured in duplicate on 24-well MATRIGEL® plates (BD Biosciences, San Diego, CA) alone, or in the presence of rE or E4 peptide (50 nM) in EBM-2 at 37° C. DMSO was used as vehicle control. After 24 hours, images were captured using a […] microscope. The degree of cord formation was quantified by measuring the area occupied by tubes in 6 random fields per well. Three independent experiments were performed."}, "[12]": {"system": "lysyl oxidase (LOX)", "assay": "LOX Western blot in conditioned media of primary human lung fibroblasts", "assay_type": "cell-based", "settings": "TGF-β followed 30 min later by E4; 48 h", "experimental": "FIG. 13. E4 reduces fibrosis in vitro by blocking TGF-β-induced LOX production in primary human lung fibroblasts. Normal lung fibroblasts in passage 4 were treated with vehicle, E4, TGF-β, or TGF-β followed 30 min. later by E4. Media conditioned by the fibroblasts were analyzed using Western blot analysis after 48 hour. Lane 1: Vehicle (DMSO); Lane 2: E-4; Lane 3: TGF-β; Lane 4: TGF-β followed by E4. Similar results were obtained when LOX mRNA levels were examined by real-time PCR.\nE4-mediated reduction of LOX was detected also was detected in vitro. Normal lung fibroblasts in passage 4 were treated with vehicle, E4, TGF-β, or TGF-β followed 30 minutes later by E4 (FIG. 13). Media conditioned by the fibroblasts were analyzed using Western blot analysis after 48 hrs. […] Similar results were obtained when LOX mRNA levels were examined by real-time PCR."}}, "note": "“Also recorded” adds a separate entry of the source. Ends that are not written are not given here.", "data": [{"substance": "E4: SEQ ID NO: 21, amino acids 133-180 of human endostatin with a C-terminal amide (SYCETWRTEAPSATGQASSLLGGRLLGQSAASCHHAYIVLCIENSFMT-NH2; cysteine pairing not given here)", "values": [{"measurement": "Effect of E4 peptide on MMP-3", "setting": "[1]", "result": "increased levels and activity; also recorded: Increase"}, {"measurement": "LOX levels in lung", "setting": "[2]", "result": "reduces levels; also recorded: reducing levels"}, {"measurement": "Egr-1 levels", "setting": "[3]", "result": "reduces"}, {"measurement": "Egr-1 levels", "setting": "[3]; listed as E-4", "result": "reducing levels"}, {"measurement": "Effect of E4 peptide on IGFBP-3", "setting": "[4]", "result": "reduces; also recorded: Decrease"}, {"measurement": "levels of lysyl oxidase (LOX)", "setting": "[5]", "result": "reduces"}, {"measurement": "TGF-β-induced ECM production", "setting": "[6]", "result": "reduced"}, {"measurement": "skin thickness", "setting": "[7]", "result": "E4 significantly decreased skin"}, {"measurement": "collagen increase", "setting": "[8]", "result": "skin thickness and attenuated"}, {"measurement": "skin thickness", "setting": "[8]", "result": "TGF-β, significantly decreased"}, {"measurement": "Effect of E4 peptide on MMP-1", "setting": "[9]", "result": "induces; also recorded: Increase; also recorded: increased levels and activity"}, {"measurement": "Effect of E4 peptide on CTGF", "setting": "[10]", "result": "reduces; also recorded: Decrease"}, {"measurement": "inhibition of tubular structure formation (anti-angiogenic activity)", "setting": "[11]", "result": "modest and low and minimal anti-angiogenic activity"}, {"measurement": "TGF-β-induced LOX production", "setting": "[12]", "result": "significantly reduced; also recorded: blocking"}]}]}
